According to US4638088A, “Pesticidal biphenylyloxy and biphenylylalkoxy aryl acyl urea compounds” (Union Carbide Corporation, priority 1984, dated 1987):

Legend:
[1] = test system: southern armyworm; assay: Southern Armyworm Leaf Spray Bait Test; format: in vivo; conditions: Spodoptera eridania, 120 h; for mortality at 8 ppm: read-out: Percent Control (after 5 days), Application Rate 8 ppm; for mortality at 125 ppm: read-out: Percent Control (after 5 days), Application Rate 125 ppm; for mortality at 25 ppm: read-out: Percent Control (after 5 days), Application Rate 25 ppm; for mortality at 100 ppm: read-out: Percent Control (after 5 days), Application Rate 100 ppm; for mortality at 500 ppm: read-out: Activity at 500 ppm, SAW, 500 ppm, Southern Armyworm larvae, up to five days; for mortality at 2 ppm: read-out: Percent Control (after 5 days), Application Rate 2 ppm; for mortality at 4 ppm: read-out: Percent Control (after 5 days), Application Rate 4 ppm
Protocol: (§1) Suspension of the test compounds were prepared by dissolving one gram of compound in 50 milliliters of acetone in which had been dissolved 0.1 gram (10 percent of the weight of compound) of an alkylphenoxy polyethoxyethanol surfactant, as an emulsifying or dispersing agent. The resulting solution was mixed into 150 milliliters of water to give roughly 200 milliliters of a suspension containing the compound in finely divided form. The thus-prepared stock suspension contained 0.5 percent by weight of compound. The test concentrations in parts per million by weight employed in the tests described hereinbelow were obtained by appropriate dilutions of the stock suspension with water. Certain of the test compounds were also prepared by dissolving 375 mg of compound in 7.5 ml of dimethylformamide. Fifteen milliliters of acetone containing 37.5 mg (10 percent of the weight of test compound) of an alkylphenoxy polyethoxyethanol surfactant, as a wetting/emulsifying/dispersing agent was added to the dimethylformamide solution. Fifty-two and one-half milliliters of water wasa mixed into the dimethylformamide-acetone mixture to give roughly 75 ml of a suspension containing the compound in solution or in finely divided form. The thus prepared stock suspension contained 0.5 percent by weight of compound. The test procedures were as follows:
Larvae of the southern armyworm (Spodoptera eridania, (Cram.), reared on Tendergreen bean plants at a temperature of 80°±5° F. and a relative humidity of 50±5 percent, constituted the test insects.
Potted Tendergreen bean plants of standarad height and age were placed on a revolving turntable and sprayed with 100-110 milliliters of test compound formulation by use of a DeVilbiss spray gun set at 40 psig air pressure. This application, which lasted 25 seconds, was sufficient to wet plants to run-off. As a control, 100-110 milliliters of a water-acetone-emulsifier solution containing no test compound was also sprayed on infested plants. When dry, the paired leaves were separated and each one was placed in a 9 centimeter Petri dish lined with moistened filter paper. Five randomly selected larvae were introduced into each dish and the dishes were closed. The closed dishes were labeled and held at 80°-85° F. for up to five days. Although the larvae could easily consume the whole leaf within twenty-four hours, no more food was added. Larvae which were unable to move the length of the body, even upon stimulation by prodding, were considered dead. Percent mortality was recorded for various concentration levels.

[2] = test system: Mexican bean beetle; assay: Mexican Bean Beetle Leaf Spray Test; format: in vivo, Epilachna varivestic; conditions: Mexican Bean Beetle larvae, five days; for mortality at 500 ppm: Epilachna varivestis, 120 h, read-out: Activity at 500 ppm, MBB; for Activity at 500 ppm, MBB: 7200 min
Protocol: as §1
Fourth instar larvae of the Mexican bean beetle (Epilachna varivestic, Muls.), reared on Tendergreen bean plants at a temperature of 80°±5° F. and 50±5 percent relative humidity, were the test insects. For certain of the tests second instar larvae (weighting about 6 mg) of the Mexican bean beetle (Epilachna varaivestis, Muls.), reared on Sieva Pole lime bean plants at a temperature of 80°±5° F. and 50±5 percent relative humidity, were the test insects.
The test compounds were formulated by diluting the stock suspension with water to give a suspension containing 500 parts of test compound per million parts of final formulation. Potted Tendergreen bean plants of standard height and age were placed on a revolving turntable and sprayed with 100-110 milliliters of test compound formulation by use of a DeVilbiss spray gun set at 40 psig air pressure. This application, which lasted 25 seconds, was sufficient to wet plants to run-off. As a control, 100-110 milliliters of a water-acetone-emulsifier solution containing no test compound was also sprayed on infested plants. When dry, the paired leaves were separated and each was placed in a 9 centimeter Petri dish lined with moistened filter paper. Five randomly selected larvae were introduced into each dish, and the dishes were closed. The closed dishes were labeled and held at a temperature of 80°±5° F., for five days. Although the larvae could easily consume the leaf within 24 to 48 hours, no more food was added. Larvae which were unable to move the length of the body, even upon stimulation, were considered dead. Percent mortality was recorded for various concentration levels.

Row | Compound | mortality at 500 ppm [2] [%] | mortality at 500 ppm [1] [%] | other results
1 | Cc1ccc(Oc2ccc(NC(=O)NC(=O)c3ccccc3Cl)cc2Cl)c(C)c1 [Comparative Example B, reference compound] | – | – | mortality at 8 ppm [1]: 20%; mortality at 21 ppm ([1]; read-out: Percent Control (after 5 days), Application Rate 21 ppm): 30%; mortality at 125 ppm [1]: 100%
2 | O=C(NC(=O)c1c(F)cccc1F)Nc1ccc(Oc2ccc(Oc3ccccc3)cc2)cc1 [D, reference compound] | – | – | mortality at 25 ppm [1]: 0%; mortality at 100 ppm [1]: 0%
3 | Cc1cc(NC(=S)NC(=O)c2ccccc2Cl)c(C)c(Cl)c1Oc1ccc(-c2ccccc2)cc1 [Example 12] | 71 to 100 | 0 to 30 | –
4 | O=C(NC(=S)Nc1cc(Cl)c(OCc2ccccc2-c2ccccc2)c(Cl)c1)c1ccccc1Cl [Example 29] | 71 to 100 | 71 to 100 | –
5 | Cc1cc(Oc2ccccc2-c2ccccc2)c(Cl)cc1NC(=S)NC(=O)c1ccccc1Cl [Example 23] | 71 to 100 | 71 to 100 | –
6 | Cc1cc(Oc2ccccc2-c2ccccc2)c(Cl)cc1NC(=O)NC(=O)c1c(F)cccc1F [Example 22] | 71 to 100 | 71 to 100 | –
7 | Cc1cc(NC(=O)NC(=O)c2ccccc2F)c(C)c(Cl)c1Oc1ccc(Cl)cc1-c1ccccc1 [Example 18] | 71 to 100 | 71 to 100 | –
8 | Cc1cc(NC(=S)NC(=O)c2ccccc2Cl)c(C)c(Cl)c1Oc1ccc(Br)cc1-c1ccccc1 [Example 13] | 0 to 30 | 0 to 30 | –
9 | O=C(NC(=O)c1ccccc1Cl)Nc1ccc(Oc2ccc(Oc3ccccc3)cc2)cc1 [E, reference compound] | – | – | mortality at 25 ppm [1]: 0%; mortality at 100 ppm [1]: 0%
10 | Cc1cc(NC(=O)NC(=O)c2c(F)cccc2F)c(C)c(Cl)c1Oc1ccc(Br)cc1-c1ccccc1 [Example 25] | 71 to 100 | 71 to 100 | –
11 | Cc1cc(NC(=S)NC(=O)c2ccccc2Cl)c(C)c(Cl)c1Oc1ccccc1-c1ccccc1 [Example 7] | 71 to 100 | 71 to 100 | –
12 | Cc1cc(NC(=O)NC(=O)c2c(F)cccc2F)c(C)c(Cl)c1Oc1ccccc1-c1ccccc1 [Example 33] | – | – | mortality at 2 ppm [1]: 100%; mortality at 8 ppm [1]: 100%
13 | O=C(NC(=O)c1ccccc1Cl)Nc1cc(Cl)c(OCc2ccccc2-c2ccccc2)c(Cl)c1 [Example 2, 1-(2-chlorobenzoyl)-3-[3,5-dichloro-4-(2-phenylphenylmethoxy)phenyl]urea] | 71 to 100 | 71 to 100 | –
14 | Cc1cc(NC(=O)NC(=O)c2ccccc2Cl)c(C)c(Cl)c1Oc1ccc(Br)cc1-c1ccccc1 [Example 24] | 0 to 30 | 71 to 100 | –
15 | Cc1cc(NC(=O)NC(=O)c2c(F)cccc2F)c(C)c(Cl)c1Oc1ccc(-c2ccccc2)cc1Cl [Example 14] | 71 to 100 | 71 to 100 | –
16 | Cc1cc(NC(=O)NC(=O)c2c(F)cccc2F)c(C)c(Cl)c1Oc1ccccc1-c1ccccc1 [Example 6] | 71 to 100 | 71 to 100 | –
17 | O=C(NC(=O)c1c(F)cccc1F)Nc1cc(Cl)c(OCc2ccccc2-c2ccccc2)c(Cl)c1 [Example 28] | 71 to 100 | 71 to 100 | –
18 | Cc1cc(NC(=O)NC(=O)c2ccccc2F)c(C)c(Cl)c1Oc1ccc(-c2ccccc2)cc1Cl [Example 15] | 71 to 100 | 71 to 100 | –
19 | Cc1cc(NC(=O)NC(=O)c2ccccc2Cl)c(C)c(Cl)c1Oc1ccc(-c2ccccc2)cc1Cl [Example 1, 1-(2-chlorobenzoyl)-3-[2,5-dimethyl-3-chloro-4-(2-chloro-4-phenylphenoxy)phenyl]urea] | 71 to 100 | 71 to 100 | –

Row | Compound | mortality at 500 ppm [2] [%] | mortality at 500 ppm [1] [%] | other results
20 | Cc1cc(NC(=O)NC(=O)c2ccccc2Cl)c(C)c(Cl)c1Oc1ccc(Cl)cc1-c1ccccc1 [Example 17] | 71 to 100 | 71 to 100 | –
21 | Cc1cc(NC(=S)NC(=O)c2ccccc2F)c(C)c(Cl)c1Oc1ccccc1-c1ccccc1 [Example 34] | – | – | mortality at 2 ppm [1]: 100%; mortality at 8 ppm [1]: 100%
22 | O=C(NC(=O)c1c(F)cccc1F)Nc1cc(Cl)c(OCc2ccccc2-c2ccccc2)c(Cl)c1 [Example 35] | – | – | mortality at 1 ppm ([1]; read-out: Percent Control (after 5 days), Application Rate 1 ppm): 100%; mortality at 4 ppm [1]: 100%
23 | Cc1cc(NC(=O)NC(=O)c2c(F)cccc2Cl)c(C)c(Cl)c1Oc1ccc(Br)cc1-c1ccccc1 [Example 26] | 71 to 100 | 71 to 100 | –
24 | Cc1cc(NC(=O)NC(=O)c2c(F)cccc2Cl)c(C)c(Cl)c1Oc1ccccc1-c1ccccc1 [Example 5] | 71 to 100 | 71 to 100 | –
25 | Cc1ccccc1C(=O)NC(=S)Nc1cc(C)c(Oc2ccccc2-c2ccccc2)c(Cl)c1C [Example 9] | 71 to 100 | 71 to 100 | –
26 | O=C(NC(=O)c1ccc(F)cc1Cl)Nc1cc(Cl)c(Oc2ccc(-c3ccccc3)cc2)c(Cl)c1 [Comparative Example F, reference compound] | – | – | mortality at 6.5 ppm ([1]; read-out: Percent Control (after 5 days), Application Rate 6.5 ppm): 0%; mortality at 25 ppm [1]: 0%; mortality at 100 ppm [1]: 0%
27 | Cc1cc(NC(=O)NC(=O)c2c(F)cccc2F)c(C)c(Cl)c1Oc1ccc(-c2ccccc2)cc1 [Example 11] | 71 to 100 | 71 to 100 | –
28 | Cc1cc(NC(=S)NC(=O)c2ccccc2F)c(C)c(Cl)c1Oc1ccccc1-c1ccccc1 [Example 8] | – | – | Activity at 500 ppm, MBB [2]: A (71- 100% Kill)
29 | Cc1cc(NC(=O)NC(=O)c2c(F)cccc2F)c(C)c(Cl)c1Oc1ccc(Cl)cc1-c1ccccc1 [Example 20] | 71 to 100 | 71 to 100 | –
30 | O=C(NC(=O)c1cc(F)ccc1Cl)Nc1cc(Cl)c(Oc2cccc(-c3ccccc3)c2)c(Cl)c1 [Comparative Example G, reference compound] | – | – | mortality at 6.25 ppm ([1]; read-out: Percent Control (after 5 days), Application Rate 6.25 ppm): 0%; mortality at 25 ppm [1]: 0%; mortality at 100 ppm [1]: 0%
31 | Cc1cc(NC(=O)NC(=O)c2ccccc2Cl)c(C)c(Cl)c1Oc1ccc(-c2ccccc2)cc1 [Example 10] | 71 to 100 | 0 to 30 | –
32 | Cc1cc(Oc2ccccc2-c2ccccc2)c(Cl)cc1NC(=O)NC(=O)c1ccccc1C(F)(F)F [Example 27] | 0 to 30 | 0 to 30 | –
33 | O=C(NC(=O)c1c(F)cccc1F)Nc1cc(Cl)c(Oc2ccccc2-c2ccccc2)c(Cl)c1 [Example 31] | 71 to 100 | 71 to 100 | –
34 | Cc1cc(NC(=O)NC(=O)c2c(Cl)cccc2Cl)c(C)c(Cl)c1Oc1ccccc1-c1ccccc1 [Example 4] | 71 to 100 | 71 to 100 | –
35 | Cc1cc(NC(=O)NC(=O)c2ccccc2Cl)c(C)c(Cl)c1Oc1ccc(S(=O)(=O)c2ccc(Cl)cc2)cc1 [Comparative Example H, reference compound] | – | – | mortality at 2 ppm [1]: 0%; mortality at 4 ppm [1]: 0%; mortality at 8 ppm [1]: 10%
36 | Cc1cc(NC(=S)NC(=O)c2ccccc2F)c(C)c(Cl)c1Oc1ccccc1-c1ccccc1 [Example 30] | – | – | Activity at 500 ppm, MBB [2]: C (0- 30% Kill)
37 | O=C(NC(=O)c1c(F)cccc1F)Nc1cc(Cl)c(Oc2cccc3ccccc23)c(Cl)c1 [Comparative Example C, reference compound] | – | – | mortality at 8 ppm [1]: 0%; mortality at 31 ppm ([1]; read-out: Percent Control (after 5 days), Application Rate 31 ppm): 40%; mortality at 125 ppm [1]: 100%
